According to patent US20250114374A1, “BCL-2 INHIBITORS” (Newave Pharmaceutical Inc., priority 2021, published 2025):
pIC50: −log10 of the molar value.

The molecules below were run on RS4; 11 with G101V mutation (assay: In vitro anti-proliferation assay (ATPlite luminescence) in BCL-2-dependent ALL cell line RS4;11 with G101V mutation). Details: Homo sapiens, RS4-11, 72 h; read-out: RS411-G101V IC50.
Assay type: cell-based
Summary of the method: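 RS4;11 G101V cells at about 1×10^4 per well were exposed to a range of compound concentrations for about 72 h in medium with 10% FBS. Cellular ATP was measured by ATPlite luminescence after lysis, and IC50 was derived from the dose-response.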

pIC50 | SMILES
7.95 | Cc1ccccc1[C@@H]1CN(Cc2cnc(N3CCOC[C@@H]3C)c(OC(C)C)c2)CCN1C1CC2(CCN(c3ccc(C(=O)NS(=O)(=O)c4cc5c(c([N+](=O)[O-])c4)N[C@H](C4CCOCC4)CO5)c(N4c5cc6cc[nH]c6nc5O[C@H]5COCC[C@@H]54)c3)CC2)C1 [Example 190, 4-(2-((R)-4-((5-isopropoxy-6-((S)-3-methylmorpholino)pyridin-3-yl)methyl)-2-(o-tolyl)piperazin-1-yl)-7-azaspiro[3.5]nonan-7-yl)-N-(((R)-5-nitro-3-(tetrahydro-2H-pyran-4-yl)-3,4-dihydro-2H-benzo[b][1,4]oxazin-7-yl)sulfonyl)-2-((5aS,9aR)-6,7,9,9a-tetrahydro-1H-pyrano[3,4-b]pyrrolo[3′,2′:5,6]pyrido[3,2-e][1,4]oxazin-5(5aH)-yl)benzamide]
7.14 | COc1cc([C@H](C)N2CCN(C3CC4(CCN(c5ccc(C(=O)NS(=O)(=O)c6cc7c(c([N+](=O)[O-])c6)N[C@H](C6CCOCC6)CO7)c(N6c7cc8cc[nH]c8nc7O[C@H]7COCC[C@@H]76)c5)CC4)C3)[C@H](c3ccccc3C)C2)cnc1N1CCOC[C@@H]1C [Example 193, 4-(2-((R)-4-((S)-1-(5-methoxy-6-((S)-3-methylmorpholino)pyridin-3-yl)ethyl)-2-(o-tolyl)piperazin-1-yl)-7-azaspiro[3.5]nonan-7-yl)-N-(((R)-5-nitro-3-(tetrahydro-2H-pyran-4-yl)-3,4-dihydro-2H-benzo[b][1,4]oxazin-7-yl)sulfonyl)-2-((5aS,9aR)-6,7,9,9a-tetrahydro-1H-pyrano[3,4-b]pyrrolo[3′,2′:5,6]pyrido[3,2-e][1,4]oxazin-5(5aH)-yl)benzamide]
8.60 | COc1cc([C@@H](C)N2CCN(C3CC4(CCN(c5ccc(C(=O)NS(=O)(=O)c6cc7c(c([N+](=O)[O-])c6)N[C@H](C6CCOCC6)CO7)c(N6c7cc8cc[nH]c8nc7O[C@H]7COCC[C@@H]76)c5)CC4)C3)[C@H](c3ccccc3C)C2)cnc1N1CCOC[C@@H]1C [Example 194, 4-(2-((R)-4-((R)-1-(5-methoxy-6-((S)-3-methylmorpholino)pyridin-3-yl)ethyl)-2-(o-tolyl)piperazin-1-yl)-7-azaspiro[3.5]nonan-7-yl)-N-(((R)-5-nitro-3-(tetrahydro-2H-pyran-4-yl)-3,4-dihydro-2H-benzo[b][1,4]oxazin-7-yl)sulfonyl)-2-((5aS,9aR)-6,7,9,9a-tetrahydro-1H-pyrano[3,4-b]pyrrolo[3′,2′:5,6]pyrido[3,2-e][1,4]oxazin-5(5aH)-yl)benzamide]
6.48 | Cc1ccccc1[C@@H]1CN([C@H]2CCOc3c(F)cc(F)cc32)CCN1C1CC2(CCN(c3ccc(C(=O)NS(=O)(=O)c4cc5c(c([N+](=O)[O-])c4)N[C@H](C4CCOCC4)CO5)c(N4c5cc6cc[nH]c6nc5O[C@H]5COCC[C@@H]54)c3)CC2)C1 [Example 197, 4-(2-((R)-4-((S)-6,8-difluorochroman-4-yl)-2-(o-tolyl)piperazin-1-yl)-7-azaspiro[3.5]nonan-7-yl)-N-(((R)-5-nitro-3-(tetrahydro-2H-pyran-4-yl)-3,4-dihydro-2H-benzo[b][1,4]oxazin-7-yl)sulfonyl)-2-((5aS,9aR)-6,7,9,9a-tetrahydro-1H-pyrano[3,4-b]pyrrolo[3′,2′:5,6]pyrido[3,2-e][1,4]oxazin-5(5aH)-yl)benzamide]
6.84 | Cc1ccccc1[C@@H]1CN([C@@H]2CCOc3c(F)cc(F)cc32)CCN1C1CC2(CCN(c3ccc(C(=O)NS(=O)(=O)c4cc5c(c([N+](=O)[O-])c4)N[C@H](C4CCOCC4)CO5)c(N4c5cc6cc[nH]c6nc5O[C@H]5COCC[C@@H]54)c3)CC2)C1 [Example 198, 4-(2-((R)-4-((R)-6,8-difluorochroman-4-yl)-2-(o-tolyl)piperazin-1-yl)-7-azaspiro[3.5]nonan-7-yl)-N-(((R)-5-nitro-3-(tetrahydro-2H-pyran-4-yl)-3,4-dihydro-2H-benzo[b][1,4]oxazin-7-yl)sulfonyl)-2-((5aS,9aR)-6,7,9,9a-tetrahydro-1H-pyrano[3,4-b]pyrrolo[3′,2′:5,6]pyrido[3,2-e][1,4]oxazin-5(5aH)-yl)benzamide]

Same assay, conditions: cellular anti-proliferative IC50, about 72 hours, medium with 10% FBS, ATPlite; read-out: RS411-G101V IC50

SMILES | pIC50
Cc1ccccc1[C@@H]1CN(Cc2cnc(N3CCOC[C@@H]3C)c(F)c2)CCN1C1CC2(CCN(c3ccc(C(=O)NS(=O)(=O)c4cc5c(c([N+](=O)[O-])c4)N[C@H](C4CCOCC4)CO5)c(N4c5cc6cc[nH]c6nc5O[C@H]5COCC[C@@H]54)c3)CC2)C1 [Example 189, 2-[(3R,8S)-2,5-dioxa-9,15,17-triazatetracyclo[8.7.0.0^{3,8}.0^{12,16}]heptadeca-1(10),11,13,16-tetraen-9-yl]-4-{2-[(2R)-4-({5-fluoro-6-[(3S)-3-methylmorpholin-4-yl]pyridin-3-yl}methyl)-2-(2-methylphenyl)piperazin-1-yl]-7-azaspiro[3.5]nonan-7-yl}-N-[(3R)-5-nitro-3-(oxan-4-yl)-3,4-dihydro-2H-1,4-benzoxazin-7-ylsulfonyl]benzamide] | 7.43
Cc1cc2c(CN3CCN(C4CC5(CCN(c6ccc(C(=O)NS(=O)(=O)c7cc8c(c([N+](=O)[O-])c7)N[C@H](C7CCOCC7)CO8)c(N7c8cc9cc[nH]c9nc8O[C@H]8COCC[C@@H]87)c6)CC5)C4)[C@H](c4ccccc4C)C3)cnc(N3CCOC[C@@H]3C)c2o1 [Example 191, 2-[(3R,8S)-2,5-dioxa-9,15,17-triazatetracyclo[8.7.0.0^{3,8}.0^{12,16}]heptadeca-1(10),11,13,16-tetraen-9-yl]-4-{2-[(2R)-4-({2-methyl-7-[(3S)-3-methylmorpholin-4-yl]furo[2,3-c]pyridin-4-yl}methyl)-2-(2-methylphenyl)piperazin-1-yl]-7-azaspiro[3.5]nonan-7-yl}-N-[(3R)-5-nitro-3-(oxan-4-yl)-3,4-dihydro-2H-1,4-benzoxazin-7-ylsulfonyl]benzamide] | 7.85
Cc1ccccc1[C@@H]1CN(Cc2cnc(N3CCOCC3)c3c2C(C)(C)CCO3)CCN1C1CC2(CCN(c3ccc(C(=O)NS(=O)(=O)c4cc5c(c([N+](=O)[O-])c4)N[C@H](C4CCOCC4)CO5)c(N4c5cc6cc[nH]c6nc5O[C@H]5COCC[C@@H]54)c3)CC2)C1 [Example 192, 4-{2-[(2R)-4-{[4,4-dimethyl-8-(morpholin-4-yl)-2H,3H-pyrano[2,3-c]pyridin-5-yl]methyl}-2-(2-methylphenyl)piperazin-1-yl]-7-azaspiro[3.5]nonan-7-yl}-2-[(3R,8S)-2,5-dioxa-9,15,17-triazatetracyclo[8.7.0.0^{3,8}.0^{12,16}]heptadeca-1(10),11,13,16-tetraen-9-yl]-N-[(3R)-5-nitro-3-(oxan-4-yl)-3,4-dihydro-2H-1,4-benzoxazin-7-ylsulfonyl]benzamide] | 8.62
Cc1ccccc1[C@@H]1CN([C@@H]2CCOc3c2ccc(F)c3F)CCN1C1CC2(CCN(c3ccc(C(=O)NS(=O)(=O)c4cc5c(c([N+](=O)[O-])c4)N[C@H](C4CCOCC4)CO5)c(N4c5cc6cc[nH]c6nc5O[C@H]5COCC[C@@H]54)c3)CC2)C1 [Example 195, 4-{2-[(2R)-4-[(4R)-7,8-difluoro-3,4-dihydro-2H-1-benzopyran-4-yl]-2-(2-methylphenyl)piperazin-1-yl]-7-azaspiro[3.5]nonan-7-yl}-2-[(3R,8S)-2,5-dioxa-9,15,17-triazatetracyclo[8.7.0.0^{3,8}.0^{12,16}]heptadeca-1(10),11,13,16-tetraen-9-yl]-N-[(3R)-5-nitro-3-(oxan-4-yl)-3,4-dihydro-2H-1,4-benzoxazin-7-ylsulfonyl]benzamide] | 7.02
Cc1ccccc1[C@@H]1CN([C@H]2CCOc3c2ccc(F)c3F)CCN1C1CC2(CCN(c3ccc(C(=O)NS(=O)(=O)c4cc5c(c([N+](=O)[O-])c4)N[C@H](C4CCOCC4)CO5)c(N4c5cc6cc[nH]c6nc5O[C@H]5COCC[C@@H]54)c3)CC2)C1 [Example 196, 4-{2-[(2R)-4-[(4S)-7,8-difluoro-3,4-dihydro-2H-1-benzopyran-4-yl]-2-(2-methylphenyl)piperazin-1-yl]-7-azaspiro[3.5]nonan-7-yl}-2-[(3R,8S)-2,5-dioxa-9,15,17-triazatetracyclo[8.7.0.0^{3,8}.0^{12,16}]heptadeca-1(10),11,13,16-tetraen-9-yl]-N-[(3R)-5-nitro-3-(oxan-4-yl)-3,4-dihydro-2H-1,4-benzoxazin-7-ylsulfonyl]benzamide] | 7.03
Cc1ccccc1[C@@H]1CN(C2CCC(C)(O)CC2)CCN1C1CC2(CCN(c3ccc(C(=O)NS(=O)(=O)c4cc5c(c([N+](=O)[O-])c4)N[C@H](C4CCOCC4)CO5)c(N4c5cc6cc[nH]c6nc5O[C@H]5COCC[C@@H]54)c3)CC2)C1 (stereo partly drawn) [Example 199, 4-(2-((R)-4-((1r,4R)-4-hydroxy-4-methylcyclohexyl)-2-(o-tolyl)piperazin-1-yl)-7-azaspiro[3.5]nonan-7-yl)-N-(((R)-5-nitro-3-(tetrahydro-2H-pyran-4-yl)-3,4-dihydro-2H-benzo[b][1,4]oxazin-7-yl)sulfonyl)-2-((5aS,9aR)-6,7,9,9a-tetrahydro-1H-pyrano[3,4-b]pyrrolo[3′,2′:5,6]pyrido[3,2-e][1,4]oxazin-5(5aH)-yl)benzamide] | 7.30
Cc1ccccc1[C@@H]1CN(C2CCC(C)(O)CC2)CCN1C1CC2(CCN(c3ccc(C(=O)NS(=O)(=O)c4cc5c(c([N+](=O)[O-])c4)N[C@H](C4CCOCC4)CO5)c(N4c5cc6cc[nH]c6nc5O[C@H]5COCC[C@@H]54)c3)CC2)C1 (stereo partly drawn) [Example 200, 4-(2-((R)-4-((1s,4S)-4-hydroxy-4-methylcyclohexyl)-2-(o-tolyl)piperazin-1-yl)-7-azaspiro[3.5]nonan-7-yl)-N-(((R)-5-nitro-3-(tetrahydro-2H-pyran-4-yl)-3,4-dihydro-2H-benzo[b][1,4]oxazin-7-yl)sulfonyl)-2-((5aS,9aR)-6,7,9,9a-tetrahydro-1H-pyrano[3,4-b]pyrrolo[3′,2′:5,6]pyrido[3,2-e][1,4]oxazin-5(5aH)-yl)benzamide] | 7.08
